According to PMC6271697, “Anticancer Activities of Polyynes from the Root Bark of Oplopanax horridus and Their Acetylated Derivatives” (Molecules, 2014):
Like-named read-outs stand apart in the source and are kept apart here.

Legend:
Format in all cases: cell-based, human
[1] = test system: HepG2 cells; assay: MTT cell viability assay, HepG2 cells; settings: for IC50: read-out: IC50 HepG2
Description: (§1) The human breast cancer cell lines MCF-7, MDA-MB-231, human hepatocellular liver cell line HepG2 and human lung carcinoma epithelial cells A549 were purchased from American Type Culture Collection (ATCC, Manassas, VA, USA). Normal human hepatic LO2 cells were obtained from the Institute of Cell Biology, Academic Sinica (Shanghai, China). The cells were grown in an atmosphere of 5% CO2 at 37 °C in RPMI 1640 medium supplemented with 10% fetal bovine serum, 100 U/mL penicillin and […] streptomycin.
(§2) The viability of cells was measured by a colorimetric MTT assay. Briefly, 1 × 10^4 cells/well in 96-well microplates were exposed to different concentration of polyynes and their acetylated derivatives respectively for 24 h incubation, following addition of 20 μL MTT solution (4 mg/mL) to each well for another 4 h incubation at 37 °C. Finally, the medium was removed and replaced with 100 μL dimethyl sulfoxide which was added to dissolve the dye crystal presented in cells. The absorbance was recorded at 570 nm using a microplate reader (1420 Multilabel counter victor^3, Perkin-Elmer, Waltham, MA, USA). The results were expressed as ratio of absorbance between treatments and control cells (solvent vehicle set at 100%). Four replicate wells were tested per assay which was repeated three times.

[2] = test system: LO2 cells; assay: MTT cell viability assay, normal hepatic LO2 cells; settings: read-out: IC50 LO2
Description: as §1, §2

[3] = test system: MCF-7 cells; assay: MTT cell viability assay, MCF-7 cells; settings: for IC50: read-out: IC50 MCF-7
Description: as §1, §2

[4] = test system: MDA-MB-231 cells; assay: MTT cell viability assay, MDA-MB-231 cells; settings: read-out: IC50 MDA-MB-231
Description: as §1, §2

[5] = test system: A549 cells; assay: MTT cell viability assay, A549 cells; settings: for IC50: read-out: IC50 A549
Description: as §1, §2

[6] = test system: MDA-MB-231 cells; assay: Cell cycle analysis by PI staining and flow cytometry; settings: 24 h
Description: Cells were seeded in 6-well tissue culture plates and treated with DMSO control or different concentration of OHR-1, -2, -3 and -5 for 24 h. Then, the cells were harvested and fixed gently with cold 70% ethanol at −20 °C overnight. Finally, the cells were washed with PBS and re-suspended in 300 μL of propidium iodide (PI) stain solution (20 μg/mL PI and 8 μg/mL DNase-free RNase) for 20 min at room temperature in the dark. The cells were analyzed with a flow cytometry and Mod Fit LT 3.0 software (Variety Software House, Topsham, ME, USA). For each measurement, at least 20,000 cells were counted.

[7] = test system: MDA-MB-231 cells; assay: Hoechst 33342 staining for apoptosis; settings: OHR-1 15 μM, OHR-2 5 μM, OHR-3 10 μM, OHR-5 15 μM; 12 h
Description: MDA-MB-231 cells were seeded in the flat-bottomed 6-well plates and treated with OHR-1, -2, -3 and -5. Cells treated with solvent vehicle served as controls. In 12 h after treatment, cells were fixed in 4% polyoxymethylene solution for 30 min and then washed with PBS. The fixed cells were incubated with Hoechst 33342 for 15 min at room temperature in the dark and then washed with PBS twice, which were finally observed under a fluorescence microscope (Convert Fluorescence Microsope Axiovert 200, HAL 100, HBO 100, Carl Zeiss MicroImaging Co., Ltd., Oberkochen, Germany) at a magnification of ×400.

[8] = test system: MDA-MB-231 cells; assay: JC-1 mitochondrial membrane potential; settings: high concentration (OHR-1 15 μM, OHR-2 5 μM, OHR-3 10 μM, OHR-5 15 μM), 24 h
Description: The MDA-MB-231 cells were treated with OHR-1, -2, -3 and -5 for 24 h in a humidified atmosphere (37 °C with 5% CO2). The cells were collected and responded in 0.5 mL culture medium with JC-1 dye (1 μg/mL) for 20 min at 37 °C in dark. Fluorescence was monitored by both flow cytometry (BD Biosciences, San Jose, CA, USA) and fluorescence microscope. The Δψm were indicated by the rato of […] fluorescence intensity. The data were expressed as ratio of Δψm between treatments and control cells (solvent vehicle set at 100%).

[9] = Homo sapiens, HepG2, MTT, 24 h incubation
[10] = L02, normal human hepatic cells, MTT, 24 h incubation
[11] = Homo sapiens, MCF7, MTT, 24 h incubation
[12] = Homo sapiens, MDA-MB-231, MTT, 24 h incubation
[13] = Homo sapiens, A549, MTT, 24 h incubation
[14] = normal human hepatic cells, MTT, 24 h incubation

Compound	IC50 [1, 9] [µM]	IC50 [2, 10] [µM]	IC50 [3, 11] [µM]	IC50 [4, 12] [µM]	IC50 [5, 13] [µM]	other results
C=C[C@H](O)C#CC#C[C@@H](O)/C=C\CCCCCCC [OH-1, (3S,8S,Z)-Heptadeca-1,9-dien-4,6-diyne-3,8-diol]	–	–	–	–	–	IC50 ([1]; Homo sapiens, HepG2, 24 h): 7.7 ± 1.3 µM; IC50 ([2]; Homo sapiens, L02, 24 h): 8.7 ± 0.5 µM; IC50 ([3]; Homo sapiens, MCF7, 24 h): 15.3 ± 0.3 µM; IC50 ([4]; Homo sapiens, MDA-MB-231, 24 h): 4.7 ± 1.4 µM; IC50 ([5]; Homo sapiens, A549, 24 h): 23.5 ± 4.1 µM; inhibition at 60 µM ([5]; Homo sapiens, A549, read-out: A549 cell growth inhibited): 95.6%
CCCCCCC/C=C\[C@H](O)C#CC#C[C@@H](O)CC [OH-2, (3S,8S,Z)-Heptadeca-9-en-4,6-diyne-3,8-diol]	38.4 ± 7.5	30.2 ± 4.8	27.5 ± 2.2	14.7 ± 2.7	44.1 ± 9.4	–
C=C[C@H](O)C#CC#C[C@@H](O)/C=C\CCCCCCCCOC(C)=O [OH-3, (11S,16S,Z)-11,16-Dihydroxyoctadeca-9,17-dien-12,14-diynyl acetate]	47.2 ± 5.9	90.3 ± 6.4	93.6 ± 6.1	16.5 ± 2.2	98 ± 6.3	–
CC[C@H](O)C#CC#C[C@@H](O)/C=C\CCCCCCCCOC(C)=O [OH-4, (11S,16S,Z)-11,16-Dihydroxyoctadeca-9-en-12,14-diynyl acetate]	69.1 ± 1.8	91.9 ± 13.4	100 ± 7	87.8 ± 7.9	109.9 ± 0.8	–
C=C[C@H](O)C#CC#C[C@@H](O)/C=C\CCCCCCCCO [OH-5, (11S,16S,Z)-Octadeca-9,17-dien-12,14-diyne-1,11,16-triol]	48.3 ± 5.9	91 ± 9.5	94.4 ± 7.3	49 ± 10.9	150 to 300	–
CC[C@H](O)C#CC#C[C@@H](O)/C=C\CCCCCCCCO [OH-6, (11S,16S,Z)-Octadeca-9-en-12,14-diyne-1,11,16-triol]	45.3 ± 6.3	90.8 ± 4	106 ± 13.2	55.7 ± 11.8	85.7 ± 13.2	–
C=C[C@@H](C#CC#C[C@@H](O)/C=C\CCCCCCCCOC(C)=O)OC(C)=O [OHR-9]	59.9 ± 3	86.2 ± 11.3	81.3 ± 1	52 ± 7.5	83.1 ± 8.4	–
CC[C@H](O)C#CC#C[C@H](/C=C\CCCCCCCCOC(C)=O)OC(C)=O [OHR-12, (11S,16S,Z)-16-Hydroxyoctadeca-9-en-12,14-diyne-1,11-diyl diacetate]	100 to 300	100 to 300	90.7 ± 0.3	77.7 ± 1.9	100 to 300	–
(3S,8S,Z)-3,18-Dihydroxyoctadeca-1,9-dien-4,6-diyn-8-yl acetate [OHR-15]	–	–	–	–	–	IC50 ([1]; MTT, 24 h incubation): > 300 µM; antiproliferative effect on HepG2 cells (in words) ([1]; concentrations 1–300 µM): no cytotoxicity; IC50 [2, 14]: > 300 µM; IC50 ([3]; MTT, 24 h incubation): > 300 µM; antiproliferative effect on MCF-7 cells (in words) ([3]; concentrations 1–300 µM): no cytotoxicity; IC50 ([4]; MTT, 24 h incubation): 100 to 300 µM; IC50 ([5]; MTT, 24 h incubation): > 300 µM; antiproliferative effect on A549 cells (in words) ([5]; concentrations 1–300 µM): no cytotoxicity
(3S,8S,Z)-3-Hydroxyheptadeca-1,9-dien-4,6-diyn-8-yl acetate [OHR-5]	–	–	–	–	–	G2/M arrest rate at low concentration ([6]; OHR-1 7.5 μM, OHR-2 2.5 μM, OHR-3 5 μM, OHR-5 7.5 μM): 33.2% ± 4.6%; G2/M arrest rate at high concentration ([6]; OHR-1 15 μM, OHR-2 5 μM, OHR-3 10 μM, OHR-5 15 μM): 38.0% ± 1.7%; IC50 ([1]; MTT, 24 h incubation): 43.7 ± 6.6 µM; IC50 [2, 14]: 31.1 ± 1.8 µM; IC50 ([3]; MTT, 24 h incubation): 30.6 ± 3.1 µM; IC50 ([4]; MTT, 24 h incubation): 13.9 ± 5.8 µM; induction of apoptosis (Hoechst staining) [7]: induce obvious apoptosis; effect on mitochondrial membrane potential Δψm (JC-1) [8]: decreasing the Δψm; IC50 ([5]; MTT, 24 h incubation): 30.1 ± 4.4 µM
